Test results taken from US8435928B2, “Herbicidal composition” (Ishihara Sangyo Kaisha, Ltd., priority 2007, dated 2013).

Tests used:
crabgrass [1] = experiment: Test Example 8: foliar application of compound No. 2-6 wettable powder with surfactant, crabgrass; assay type: in vivo, Digitaria sanguinalis L.; conditions: 15 g a.i./ha wettable powder, 21st day
Excerpt: (§1) On the 21st day after the application, the state of growth of the plants was visually observed (growth inhibition rate (%)=0 (the same as the untreated plot) to 100 (complete kill)), and the results as shown in Tables b1 and b2 were obtained.
(§2) Upland field soil was put into a 1/1,000,000 ha pot, and seeds of bamyardgrass (Echinochloa crus-galli L) and crabgrass were respectively sown and grown in a greenhouse. When barnyardgrass reached 4.0 to 4.5 leaf stage and crabgrass reached 4.0 to 5.0 leaf stage, a prescribed amount (15 g a.i./ha) of a wettable powder comprising compound No. 2-6 as an active ingredient, prepared in accordance with the above Example 1, was diluted with water corresponding to 300 L/ha (containing 0.05 vol % of a surfactant containing the POA alkyl ether phosphate), followed by foliar application. Further, for comparison, foliar application was carried out in the same manner by using SILWETT L-77 (tradename.) at a concentration of 0.1 vol % instead of the above surfactant.
(§3) On the 21st day after the application, the state of growth of the plants was evaluated in the same manner as in Test Example 1, and the results as shown in Tables b11 and b12 were obtained.

[2] = tested on: bamyardgrass (Echinochloa crus-galli L); experiment: Test Example 8: foliar application of compound No. 2-6 wettable powder with surfactant, barnyardgrass; assay type: in vivo; conditions: 15 g a.i./ha wettable powder, 21st day
Excerpt: as §1, §2, §3

[3] = tested on: bamyardgrass (Echinochloa crus-galli L); experiment: Test Example 10: foliar application of compound No. 2-185 wettable powder with surfactant, barnyardgrass; assay type: in vivo; conditions: 15 g a.i./ha wettable powder, 21st day
Excerpt: as §1, §2
On the 21st day after the application, the state of growth of the plants was evaluated in the same manner as in Test Example 1, and the results as shown in Tables b11 and b12 were obtained. […]

crabgrass [4] = experiment: Test Example 10: foliar application of compound No. 2-185 wettable powder with surfactant, crabgrass; assay type: in vivo, Digitaria sanguinalis L.; conditions: 15 g a.i./ha wettable powder, 21st day
Excerpt: as §1, §2, §3
The results as shown in Tables b14 and b15 were obtained in the same manner as in the above Test Example 8 except that a prescribed amount (15 g a.i./ha) of a wettable powder comprising compound No. 2-185 as an active ingredient, prepared in accordance with the above Example 1, was used.

barnyardgrass = experiment: Test Example 13: foliar application of compound No. 5-1 wettable powder with surfactant, barnyardgrass; assay type: in vivo, Echinochloa crus-galli L; conditions: 31 g a.i./ha wettable powder, 21st day
Excerpt: as §1
as §2, with “bamyardgrass” for “bamyardgrass (Echinochloa crus-galli L) and crabgrass”, “were” for “were respectively”, “leaf” for “leaf stage and crabgrass reached 4.0 to 5.0 leaf”, “(31” for “(15”, “5-1” for “2-6”, “(tradename)” for “(tradename.)”
On the 21st day after the application, the state of growth of the plant was evaluated in the same manner as in Test Example 1, and the results as shown in Table b18 were obtained.

crabgrass [5] = experiment: Test Example 5: foliar application of compound No. 3-31 wettable powder with surfactant, crabgrass; assay type: in vivo, Digitaria sanguinalis L.; conditions: foliar application at 4.5 to 5.0 leaf stage, visual, 21st day, 0 = same as untreated, 100 = complete kill
Excerpt: as §1
Upland field soil was put into a 1/1,000,000 ha pot, and seeds of crabgrass were sown and grown in a greenhouse. When crabgrass reached 4.5 to 5.0 leaf stage, a prescribed amount (30 g a.i./ha) of a water-based suspension concentrate comprising compound No. 238 as an active ingredient, prepared in accordance with the above Example 6, was diluted with water corresponding to 300 L/ha (containing 0.05 vol % of a surfactant containing the POA alkyl ether phosphate), followed by foliar application. Further, for comparison, foliar application was carried out in the same manner by using CITOWETT (tradename) at a concentration of 0.3 vol %, instead of the above surfactant.
On the 21st day after the application, the state of growth of the plant was evaluated in the same manner as in Test Example 1, and the results as shown in Table b5 were obtained.
The results as shown in Table b8 were obtained in the same manner as in the above Test Example 3 except that a prescribed amount (60 g a.i./ha) of a wettable powder comprising compound No. 3-31 as an active ingredient, prepared in accordance with the above Example 5, was used.

crabgrass [6] = experiment: Test Example 12: foliar application of compound No. 4-320 wettable powder with surfactant, crabgrass; assay type: in vivo, Digitaria sanguinalis L.; conditions: 15 g a.i./ha wettable powder, 21st day
Excerpt: as §1
as §2, with “of” for “of bamyardgrass (Echinochloa crus-galli L) and”, “were” for “were respectively”, “When” for “When barnyardgrass reached 4.0 to 4.5 leaf stage and”, “4-3” for “2-6”, “(tradename)” for “(tradename.)”
On the 21st day after the application, the state of growth of the plant was evaluated in the same manner as in Test Example 1, and the results as shown in Table b16 were obtained.
The results as shown in Tables b17 were obtained in the same manner as in the above Test Example 11 except that a prescribed amount (15 g a.i./ha) of a wettable powder comprising compound No. 4-320 as an active ingredient, prepared in accordance with the above Example 1, was used.

[7] = surfactant ADECA COL PS-440E 0.05 vol %, present invention
[8] = surfactant NIKKOL DDP-8 0.05 vol %, present invention
[9] = surfactant NIKKOL TDP-8 0.05 vol %, present invention
[10] = surfactant PHOSPHANOL ML-240 0.05 vol %, present invention
[11] = surfactant PHOSPHANOL RS-710 0.05 vol %, present invention
[12] = surfactant PLYSURF A219B 0.05 vol %, present invention
[13] = surfactant SILWETT L-77 0.1 vol %, comparison
[14] = surfactant PHOSPHOLAN PS-236 0.05 vol %, present invention

CCn1ncc(C(=O)c2ccc(S(C)(=O)=O)c(OCCOC)c2C)c1O [2-6]
Growth inhibition rate (%) of crabgrass (crabgrass [1]; [7]): 75%
Growth inhibition rate (%) of crabgrass (crabgrass [1]; [8]): 70%
Growth inhibition rate (%) of crabgrass (crabgrass [1]; [9]): 73%
Growth inhibition rate (%) of crabgrass (crabgrass [1]; [10]): 85%
Growth inhibition rate (%) of crabgrass (crabgrass [1]; [11]): 70%
Growth inhibition rate (%) of crabgrass (crabgrass [1]; [12]): 78%
Growth inhibition rate (%) of crabgrass (crabgrass [1]; [13]): 40%
Growth inhibition rate (%) of barnyardgrass [2, 14]: 95%
Growth inhibition rate (%) of barnyardgrass [2, 13]: 10%

COCc1c(S(C)(=O)=O)ccc(C(=O)c2cnn(C)c2O)c1C [2-185]
Growth inhibition rate (%) of barnyardgrass [3, 14]: 80%
Growth inhibition rate (%) of barnyardgrass [3, 13]: 0%
Growth inhibition rate (%) of crabgrass (crabgrass [4]; [8]): 70%
Growth inhibition rate (%) of crabgrass (crabgrass [4]; [9]): 70%
Growth inhibition rate (%) of crabgrass (crabgrass [4]; [10]): 70%
Growth inhibition rate (%) of crabgrass (crabgrass [4]; [11]): 73%
Growth inhibition rate (%) of crabgrass (crabgrass [4]; [12]): 70%
Growth inhibition rate (%) of crabgrass (crabgrass [4]; [13]): 20%

COCCOCc1nc(C(F)(F)F)ccc1C(=O)C1C(=O)C2CCC(C2)C1=O (stereo not drawn) [5-1]
Growth inhibition rate (%) of barnyardgrass (barnyardgrass; [7]): 85%
Growth inhibition rate (%) of barnyardgrass (barnyardgrass; [13]): 70%

CS(=O)(=O)c1ccc(C(=O)C2C(=O)CCCC2=O)c(Cl)c1COCC(F)(F)F [Compound No. 3-31]
Growth inhibition rate (%) of crabgrass (crabgrass [5]; comparison: 60 g a.i./ha wettable powder in 300 L/ha water with surfactant CITOWETT 0.3 vol %): 20%
Growth inhibition rate (%) of crabgrass (crabgrass [5]; the present invention: 60 g a.i./ha wettable powder in 300 L/ha water with surfactant NIKKOL DDP-8 0.05 vol %): 80%

CCn1ncc(C(=O)c2ccc(S(C)(=O)=O)c(OCCOC)c2C)c1OC(C)OC(=O)OC (stereo not drawn) [Compound No. 4-320, 1-(1-ethyl-4-(3-(2-methoxyethoxy)-2-methyl-4-(methylsulfonyl)benzoyl)-1H-pyrazol-5-yloxy)ethyl methyl carbonate]
Growth inhibition rate (%) of crabgrass (crabgrass [6]; [8]): 90%
Growth inhibition rate (%) of crabgrass (crabgrass [6]; [14]): 90%
Growth inhibition rate (%) of crabgrass (crabgrass [6]; [13]): 88%
